The experiment deals with P388 leukemia ip, CD2F1 mice, survival T/C. Nature of the experiment: NCI In Vivo Anticancer Drug Screen. Data for tumor model P388 Leukemia (intraperitoneal) in CD2F1 (CDF1) mice. As to conditions: endpoint: median survival time, higher = longer survival. In short, it runs like this: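 Mice carrying the transplanted tumor received test compound or vehicle. Survival was recorded in each group, and the value is the treated-group measurement divided by that of the vehicle-treated control group.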

Where [1] appears, read: dose: 50.0 mg/kg/injection, schedule: Q01DX009 (ip), vehicle: Klucel (hydroxypropylcellulose) (HPC).
[2] abbreviates: dose: 100.0 mg/kg/injection, schedule: Q01DX009 (ip), vehicle: Klucel (hydroxypropylcellulose) (HPC).
Where [3] appears, read: dose: 50.0 mg/kg/injection, schedule: Q01DX009 (ip), vehicle: saline with Tween-80.
[4] abbreviates: dose: 100.0 mg/kg/injection, schedule: Q01DX009 (ip), vehicle: saline with Tween-80.
Where [5] appears, read: dose: 50.0 mg/kg/injection, schedule: Q01DX005 (ip), vehicle: saline with Tween-80.
Where [6] appears, read: dose: 100.0 mg/kg/injection, schedule: Q01DX005 (ip), vehicle: saline with Tween-80.
Setting [7] is: dose: 200.0 mg/kg/injection, schedule: Q01DX005 (ip), vehicle: saline with Tween-80.
Setting [8] is: dose: 60.0 mg/kg/injection, schedule: Q01DX005 (ip), vehicle: Klucel (hydroxypropylcellulose) (HPC).
Where [9] appears, read: dose: 120.0 mg/kg/injection, schedule: Q01DX005 (ip), vehicle: Klucel (hydroxypropylcellulose) (HPC).
[10] abbreviates: dose: 50.0 mg/kg/injection, schedule: Q01DX005 (ip), vehicle: Klucel (hydroxypropylcellulose) (HPC).
[11] abbreviates: dose: 100.0 mg/kg/injection, schedule: Q01DX005 (ip), vehicle: Klucel (hydroxypropylcellulose) (HPC).
Where [12] appears, read: dose: 200.0 mg/kg/injection, schedule: Q01DX005 (ip), vehicle: Klucel (hydroxypropylcellulose) (HPC).
Setting [13] is: dose: 200.0 mg/kg/injection, schedule: Q01DX009 (ip), vehicle: saline with Tween-80.

Where “and” joins values, the source holds several entries; their conditions need not be identical. Equal values may be shown once. Toxic doses and inconclusive results are not listed.

With `Cc1c(C)c2c(N)c3ccccc3nc2c2ccccc12`, the T/C (dose: 12.5 mg/kg/injection, schedule: Q01DX001 (ip), vehicle: saline with Tween-80) is 101 % of control; the T/C (dose: 25.0 mg/kg/injection, schedule: Q01DX001 (ip), vehicle: saline with Tween-80) is 100 % of control; the T/C (dose: 50.0 mg/kg/injection, schedule: Q01DX001 (ip), vehicle: saline with Tween-80) was 115 % of control; the T/C (dose: 100.0 mg/kg/injection, schedule: Q01DX001 (ip), vehicle: saline with Tween-80) is 111 % of control.

On to `CC(C)=NOCc1ccccc1`, for which the T/C by setting is: (dose: 2.5 mg/kg/injection, schedule: Q01DX009 (ip), vehicle: Klucel (hydroxypropylcellulose) (HPC)) 119 % of control; (dose: 5.0 mg/kg/injection, schedule: Q01DX009 (ip), vehicle: Klucel (hydroxypropylcellulose) (HPC)) 120 % of control; (dose: 10.0 mg/kg/injection, schedule: Q01DX009 (ip), vehicle: Klucel (hydroxypropylcellulose) (HPC)) 117 % of control; under setting [1], 94 % of control; under setting [2], 98 % of control.

Turning to `O=[n+]1c2ccccc2n([O-])c2cc(Cl)ccc21`, the T/C was 112 % of control (dose: 25.0 mg/kg/injection, schedule: Q04DX003 (ip), vehicle: saline with Tween-80); 150 % of control under setting [3]; 112 % of control (dose: 50.0 mg/kg/injection, schedule: Q04DX003 (ip), vehicle: saline with Tween-80); 154 % of control and 174 % of control under setting [4]; 107 % of control (dose: 100.0 mg/kg/injection, schedule: Q04DX003 (ip), vehicle: saline with Tween-80); 114 % of control (dose: 200.0 mg/kg/injection, schedule: Q04DX003 (ip), vehicle: saline with Tween-80). For the same compound, the T/C (dose: 400.0 mg/kg/injection, schedule: Q04DX003 (ip), vehicle: saline with Tween-80) was 114 % of control.

Take `FC(F)(F)c1ccccc1C(Nc1nncs1)Nc1nncs1`: the T/C was 97 % of control under setting [5], 101 % of control under setting [6] and 107 % of control under setting [7].

Take `CCN(CCC#N)C(=O)c1cccc([N+](=O)[O-])c1`: the T/C under setting [8] was 102 % of control and the T/C under setting [9] was 94 % of control.

For `C/C=C1\CN2CCC34c5ccccc5N(C(C)=O)C3C(C=O)C1CC24` (stereo unspecified), the T/C runs as follows: (dose: 7.88 mg/kg/injection, schedule: Q01DX005 (ip), vehicle: saline + Tween-80 + alcohol) 101 % of control; (dose: 15.75 mg/kg/injection, schedule: Q01DX005 (ip), vehicle: saline + Tween-80 + alcohol) 109 % of control; (dose: 31.5 mg/kg/injection, schedule: Q01DX005 (ip), vehicle: saline + Tween-80 + alcohol) 103 % of control; (dose: 63.0 mg/kg/injection, schedule: Q01DX005 (ip), vehicle: saline + Tween-80 + alcohol) 103 % of control.

For `CCCCCn1cc[nH]c1=S`, the T/C by setting is: (dose: 12.5 mg/kg/injection, schedule: Q01DX005 (ip), vehicle: Klucel (hydroxypropylcellulose) (HPC)) 101 % of control; (dose: 25.0 mg/kg/injection, schedule: Q01DX005 (ip), vehicle: Klucel (hydroxypropylcellulose) (HPC)) 104 % of control; under setting [10], 100 % of control and 101 % of control; under setting [11], 104 % of control; under setting [12], 110 % of control.

Turning to `CCCCNCC(=O)Nc1cc(NC(=O)CNCCCC)c(C)c(NC(=O)CNCCCC)c1`, the T/C reads like this: under setting [5], 100 % of control; under setting [6], 104 % of control; under setting [7], 100 % of control.

On to `C[C@H]1CN[C@@H]2[C@@H](C)[C@H]3[C@@H](C[C@H]4[C@@H]5CC[C@H]6C[C@@H](N)CC[C@]6(C)[C@H]5CC[C@]34C)O[C@@]2(O)C1`, for which the T/C (dose: 3.12 mg/kg/injection, schedule: Q01DX009 (ip), vehicle: saline) is 103 % of control; the T/C (dose: 6.25 mg/kg/injection, schedule: Q01DX009 (ip), vehicle: saline) is 94 % of control; the T/C (dose: 12.5 mg/kg/injection, schedule: Q01DX009 (ip), vehicle: saline) was 100 % of control; the T/C (dose: 25.0 mg/kg/injection, schedule: Q01DX009 (ip), vehicle: saline) is 98 % of control.

For `CCOC(=O)CC(C)C#N` (stereo unspecified), the T/C under setting [3] was 99 % of control, the T/C under setting [4] was 99 % of control and the T/C under setting [13] is 101 % of control.

On to `Clc1ccc(C(c2ccc(Cl)cc2)C(Cl)(Cl)Cl)cc1`, for which the T/C is, setting by setting: (dose: 1.56 mg/kg/injection, schedule: Q01DX009 (ip), vehicle: saline with Tween-80) 105 % of control; (dose: 3.12 mg/kg/injection, schedule: Q01DX009 (ip), vehicle: saline with Tween-80) 98 % of control; (dose: 6.25 mg/kg/injection, schedule: Q01DX009 (ip), vehicle: saline with Tween-80) 100 % of control; (dose: 12.5 mg/kg/injection, schedule: Q01DX009 (ip), vehicle: saline with Tween-80) 98 % of control; under setting [3], 99 % of control.

As for `Cn1c(N)c(C(=O)c2cccs2)c(=O)n(C)c1=O`, the T/C under setting [1] was 96 % of control; the T/C under setting [2] was 88 % of control; the T/C (dose: 200.0 mg/kg/injection, schedule: Q01DX009 (ip), vehicle: Klucel (hydroxypropylcellulose) (HPC)) is 96 % of control.

Turning to `CCc1c(OC)c(C#N)c2n(C)c3cc(C)c(C)cc3n2c1=O`, the T/C (dose: 60.0 mg/kg/injection, schedule: Q01DX005 (ip), vehicle: saline with Tween-80) is 87 % of control; the T/C (dose: 120.0 mg/kg/injection, schedule: Q01DX005 (ip), vehicle: saline with Tween-80) was 90 % of control; the T/C (dose: 240.0 mg/kg/injection, schedule: Q01DX005 (ip), vehicle: saline with Tween-80) is 93 % of control.

In the case of `CCCc1n(O)c(C)c(C)[n+]1[O-]`, the T/C is, setting by setting: under setting [3], 91 % of control; under setting [4], 100 % of control; under setting [13], 104 % of control.

As to `O=C1NC(=O)[C@@]2(CC[C@@H](O)C2)c2ccncc21`, the T/C (dose: 1.5 mg/kg/injection, schedule: Q01DX009 (ip), vehicle: DMSO) was 89 % of control; the T/C (dose: 3.0 mg/kg/injection, schedule: Q01DX009 (ip), vehicle: DMSO) was 93 % of control; the T/C (dose: 6.0 mg/kg/injection, schedule: Q01DX009 (ip), vehicle: DMSO) is 101 % of control; the T/C (dose: 12.0 mg/kg/injection, schedule: Q01DX009 (ip), vehicle: DMSO) was 95 % of control; the T/C (dose: 25.0 mg/kg/injection, schedule: Q01DX005 (ip), vehicle: DMSO) is 91 % of control; the T/C (dose: 50.0 mg/kg/injection, schedule: Q01DX005 (ip), vehicle: DMSO) was 96 % of control. Besides, the T/C was 93 % of control (dose: 100.0 mg/kg/injection, schedule: Q01DX005 (ip), vehicle: DMSO) and 92 % of control (dose: 200.0 mg/kg/injection, schedule: Q01DX005 (ip), vehicle: DMSO).

As to `O=C(Nc1ccc(Cl)cc1)O/N=C/c1ccc2c(c1)OCO2`, the T/C is 93 % of control under setting [3], 91 % of control under setting [4] and 86 % of control under setting [13].

For the compound `COc1ccc(COc2ccc(C(=O)CCN3CCOCC3)cc2)cc1`, the T/C runs as follows: under setting [10], 99 % of control; under setting [11], 99 % of control; under setting [12], 99 % of control.

In the case of `CC1(C)OC(=O)N=C1c1ccccc1Cl`, the T/C runs as follows: under setting [8], 108 % of control; under setting [9], 104 % of control; (dose: 240.0 mg/kg/injection, schedule: Q01DX005 (ip), vehicle: Klucel (hydroxypropylcellulose) (HPC)) 108 % of control.

As for `C=CCN=C(N)S[As]1c2ccccc2Oc2ccccc21`, the T/C is 100 % of control (dose: 50.0 mg/kg/injection, schedule: Q01DX009 (ip), vehicle: saline); 98 % of control (dose: 100.0 mg/kg/injection, schedule: Q01DX009 (ip), vehicle: saline); 102 % of control (dose: 200.0 mg/kg/injection, schedule: Q01DX009 (ip), vehicle: saline).

Turning to `O=C1c2ccccc2C(=O)c2c1cc1c(O)c(CN3CCCC3)ccc1c2O`, the T/C reads like this: under setting [5], 92 % of control; under setting [6], 89 % of control.

The values are drawn from PubChem BioAssay AID330 (DTP/NCI, 2004).
